Measured values taken from patent US8778964B2, “Hydroxy-substituted imidazo[1,2-a]-pyridinecarboxamides and their use” (Bayer Pharma Aktiengesellschaft, priority 2012, dated 2014).

test system: recombinant guanylate cyclase reporter cell line; test: Action on recombinant guanylate cyclase reporter cell line (MEC); type: cell-based; settings: in some cases mean values obtained from individual determinations
Protocol: B-2. Action on Recombinant Guanylate Cyclase Reporter Cell Line
The cellular action of the compounds according to the invention is determined on a recombinant guanylate cyclase reporter cell line, as described in F. Wunder et al., Anal. Biochem. 339, 104-112 (2005).
Representative values (MEC=minimal effective concentration) for the compounds according to the invention are shown in the following table (in some cases as mean values obtained from individual determinations): […]

Structure (SMILES) | minimal effective concentration [µM]
CCCC[C@H](CO)NC(=O)c1c(C)nc2c(OCc3c(F)cccc3Cl)cccn12 [Example 3, 8-[(2-chloro-6-fluorobenzyl)oxy]-N-[(2R)-1-hydroxyhexan-2-yl]-2-methylimidazo[1,2-a]pyridine-3-carboxamide] | 0.1
CCCC[C@H](CO)NC(=O)c1c(C)nc2c(OCc3ccccc3Cl)cccn12 [Example 4, 8-[(2-chlorobenzyl)oxy]-N-[(2R)-1-hydroxyhexan-2-yl]-2-methylimidazo[1,2-a]pyridine-3-carboxamide] | 0.1
CCCC[C@H](CO)NC(=O)c1c(C)nc2c(OCc3ccccc3F)cccn12 [Example 5, 8-[(2-fluorobenzyl)-oxy]-N-[(2R)-1-hydroxyhexan-2-yl]-2-methylimidazo[1,2-a]pyridine-3-carboxamide] | 0.1
CCCC[C@H](CO)NC(=O)c1c(C)nc2c(OCc3cccc(F)c3)cccn12 [Example 6, 8-[(3-fluorobenzyl)-oxy]-N-[(2R)-1-hydroxyhexan-2-yl]-2-methylimidazo[1,2-a]pyridine-3-carboxamide] | 0.1
CCCC[C@H](CO)NC(=O)c1c(C)nc2c(OCc3c(F)c(F)cc(F)c3F)cccn12 [Example 7, N-[(2R)-1-hydroxyhexan-2-yl]-2-methyl-8-[(2,3,5,6-tetrafluorobenzyl)oxy]imidazo[1,2-a]pyridine-3-carboxamide] | 0.3
CCCC[C@H](CO)NC(=O)c1c(C)nc2c(OCc3c(Cl)cccc3Cl)cccn12 [Example 8, 8-[(2,6-dichlorobenzyl)oxy]-N-[(2R)-1-hydroxyhexan-2-yl]-2-methylimidazo[1,2-a]pyridine-3-carboxamide] | 0.3
CCCC[C@H](CO)NC(=O)c1c(C)nc2c(OCc3cccc(Cl)c3Cl)cccn12 [Example 9, 8-[(2,3-dichlorobenzyl)oxy]-N-[(2R)-1-hydroxy-hexan-2-yl]-2-methylimidazo[1,2-a]pyridine-3-carboxamide] | 0.5
CCCC[C@H](CO)NC(=O)c1c(C)nc2c(OCc3cccc(F)c3F)cccn12 [Example 10, 8-[(2,3-difluorobenzyl)oxy]-N-[(2R)-1-hydroxyhexan-2-yl]-2-methylimidazo[1,2-a]pyridine-3-carboxamide] | 0.3
CCCC[C@H](CO)NC(=O)c1c(C)nc2c(OCc3cccc(C)c3F)cccn12 [Example 11, 8-[(2-fluoro-3-methylbenzyl)oxy]-N-[(2R)-1-hydroxyhexan-2-yl]-2-methylimidazo[1,2-a]pyridine-3-carboxamide] | 1.5
CCCC[C@H](CO)NC(=O)c1c(C)nc2c(OCc3cccc4c3OC(F)(F)O4)cccn12 [Example 12, 8-[(2,2-difluoro-1,3-benzodioxol-4-yl)methoxy]-N-[(2R)-1-hydroxyhexan-2-yl]-2-methylimidazo[1,2-a]-pyridine-3-carboxamide] | 3
CCCC[C@H](CO)NC(=O)c1c(C)nc2c(OCc3c(C)cccc3C)cccn12 [Example 13, 8-[(2,6-dimethylbenzyl)oxy]-N-[(2R)-1-hydroxyhexan-2-yl]-2-methylimidazo[1,2-a]pyridine-3-carboxamide] | 3
CCCC[C@H](CO)NC(=O)c1c(C)nc2c(OCc3cccc(C(F)(F)F)c3F)cccn12 [Example 14, 8-{[2-fluoro-3-(trifluoromethyl)benzyl]oxy}-N-[(2R)-1-hydroxyhexan-2-yl]-2-methylimidazo[1,2-a]-pyridine-3-carboxamide] | 3
CCCC[C@H](CO)NC(=O)c1c(C)nc2c(OCc3c(F)cc(F)cc3F)cccn12 [Example 15, N-[(2R)-1-Hydroxyhexan-2-yl]-2-methyl-8-[(2,4,6-trifluorobenzyl)oxy]imidazo[1,2-a]pyridine-3-carboxamide] | 0.1
CCCC[C@H](CO)NC(=O)c1c(C)nc2c(OCc3ccccc3)cccn12 [Example 16, 8-(Benzyloxy)-N-[(2R)-1-hydroxyhexan-2-yl]-2-methylimidazo[1,2-a]pyridine-3-carboxamide] | 1
CC[C@H](CO)NC(=O)c1c(C)nc2c(OCc3ccccc3)cccn12 [Example 17, 8-(Benzyloxy)-N-[(2R)-1-hydroxybutan-2-yl]-2-methylimidazo[1,2-a]pyridine-3-carboxamide] | 3
CCC[C@H](CO)NC(=O)c1c(C)nc2c(OCc3c(F)cccc3F)cccn12 [Example 18, 8-[(2,6-difluorobenzyl)oxy]-N-[(2R)-1-hydroxy-pentan-2-yl]-2-methylimidazo[1,2-a]pyridine-3-carboxamide] | 0.1
Cc1nc2c(OCc3c(F)cccc3F)cccn2c1C(=O)N[C@H]1CCC[C@@H]1O [Example 19, 8-[(2,6-difluorobenzyl)oxy]-N-[(1S,2S)-2-hydroxycyclopentyl]-2-methylimidazo[1,2-a]-pyridine-3-carboxamide] | 1
Cc1nc2c(OCc3c(F)cccc3F)cccn2c1C(=O)NC(C)(C)[C@H](C)O [Example 20, 8-[(2,6-difluorobenzyl)oxy]-N-[(3S)-3-hydroxy-2-methylbutan-2-yl]-2-methylimidazo[1,2-a]-pyridine-3-carboxamide] | 1
Cc1nc2c(OCc3c(F)cccc3F)cccn2c1C(=O)NCCO [Example 21, 8-[(2,6-difluorobenzyl)oxy]-N-(2-hydroxyethyl)-2-methylimidazo[1,2-a]pyridine-3-carboxamide] | 1
Cc1nc2c(OCc3c(F)cccc3F)cccn2c1C(=O)NCCCO [Example 22, 8-[(2,6-difluorobenzyl)oxy]-N-(3-hydroxy-propyl)-2-methylimidazo[1,2-a]pyridine-3-carboxamide] | 1
Cc1nc2c(OCc3c(F)cccc3F)cccn2c1C(=O)NCCCCO [Example 23, 8-[(2,6-difluorobenzyl)oxy]-N-(4-hydroxybutyl)-2-methylimidazo[1,2-a]pyridine-3-carboxamide] | 0.3
Cc1nc2c(OCc3c(F)cccc3F)cccn2c1C(=O)NCCOCCO [Example 24, 8-[(2,6-difluorobenzyl)oxy]-N-[2-(2-hydroxy-ethoxy)ethyl]-2-methylimidazo[1,2-a]pyridine-3-carboxamide] | 1
CSCC[C@H](CO)NC(=O)c1c(C)nc2c(OCc3c(F)cccc3F)cccn12 [Example 25, 8-[(2,6-difluorobenzyl)oxy]-N-[(2R)-1-hydroxy-4-(methylsulphanyl)butan-2-yl]-2-methyl-imidazo[1,2-a]pyridine-3-carboxamide] | 0.1
Cc1nc2c(OCc3c(F)cccc3F)cccn2c1C(=O)NC(CO)CO [Example 26, 8-[(2,6-difluorobenzyl)oxy]-N-(1,3-dihydroxy-propan-2-yl)-2-methylimidazo[1,2-a]pyridine-3-carboxamide] | 2
Cc1nc2c(OCc3c(F)cccc3F)cccn2c1C(=O)N[C@@H](CO)C(C)C [Example 29, 8-[(2,6-difluorobenzyl)oxy]-N-[(2R)-1-hydroxy-3-methylbutan-2-yl]-2-methylimidazo[1,2-a]-pyridine-3-carboxamide] | 0.1
